Measured values from ChEMBL document CHEMBL3272053, “(exo, exo)-2-Aryltropane-3-carboxylic esters, hypoglycemic agents with accompanying analgesic activity” (J Med Chem, 1978).

Columns and labels:
[1] = Drug metabolism in glucose loaded Sprague-Dawley rat urine assessed as formation of (7)- (exo,exo)-methyl 2-(thiophen-2-yl)-8-azabicyclo[3.2.1]octane-3-carboxylate hydrochloride at 20 mg, po administered 3 to 6 hrs measured for 24 hrs by TLC/mass spectrographic analysis; type: ADME, organism-based; settings: in vivo
[2] = test system: Mus musculus; test: Analgesic activity in po dosed Swiss-Webster mouse assessed as reduction of acetylcholine-induced writhing; type: functional
[3] = test system: Mus musculus; test: Toxicity in po dosed Swiss-Webster mouse assessed as stimulation of straub tail after 15 to 25 mins; type: organism-based; settings: in vivo
[4] = test system: Canis familiaris; test: Toxicity in nalorphine-treated dog assessed as reduction of pulmonary ventilation rate at 100 mg/kg, im measured within 5 mins; type: organism-based, Canis lupus familiaris; set-up: dose 100 mg/kg, route intramuscular; settings: in vivo
[5] = test system: Rattus norvegicus; test: Hypoglycemic activity in fasted Sprague-Dawley rat assessed as reduction of blood glucose level at 88 mg/kg, po measured at 1.5 hrs relative to control; type: functional; set-up: scale not given: the % may be the effect or the level left
[6] = test system: Rattus norvegicus; test: Hypoglycemic activity in fasted Sprague-Dawley rat assessed as reduction of blood glucose level at 50 mg/kg, po measured at 2 hrs relative to control; type: functional; set-up: scale not given: the % may be the effect or the level left
[7] = test system: Rattus norvegicus; test: Hypoglycemic activity in fasted Sprague-Dawley rat assessed as reduction of blood glucose level at 88 mg/kg, po measured at 1 hr relative to control; type: functional; set-up: scale not given: the % may be the effect or the level left
[8] = test system: Rattus norvegicus; test: Hypoglycemic activity in fasted Sprague-Dawley rat assessed as reduction of blood glucose level at 50 mg/kg, po measured at 1.5 hrs relative to control; type: functional; set-up: scale not given: the % may be the effect or the level left
[9] = test system: Rattus norvegicus; test: Toxicity in Sprague-Dawley rat assessed as induction of morphine physical dependence by measuring occurrence of abstinence signs at 32 times of morphine dose 12.5 mg/kg/24 hrs administered on day 6 post morphine withdrawal; type: organism-based; settings: in vivo
[10] = test system: Canis familiaris; test: Toxicity in dog assessed as effect on pulmonary ventilation rate at 150 mg/kg, im measured after 4 hrs; type: organism-based, Canis lupus familiaris; set-up: dose 150 mg/kg, route intramuscular; settings: in vivo
[11] = test system: Canis familiaris; test: Toxicity in nalorphine-treated dog assessed as stopped breathing at 100 mg/kg, im measured after 3 mins; type: organism-based, Canis lupus familiaris; set-up: dose 100 mg/kg, route intramuscular; settings: in vivo, 0.05 h
[12] = test system: Rattus norvegicus; test: Hypoglycemic activity in glucose loaded Sprague-Dawley rat assessed as reduction of blood glucose level at 50 mg/kg, po measured at 2 hrs relative to control; type: functional; set-up: scale not given: the % may be the effect or the level left
[13] = test system: Canis familiaris; test: Toxicity in dog assessed as reduction of pulmonary ventilation rate at 100 mg/kg, im measured within 5 mins; type: organism-based, Canis lupus familiaris; set-up: dose 100 mg/kg, route intramuscular; scale not given: the % may be the effect or the level left; settings: in vivo
[14] = test system: Rattus norvegicus; test: Hypoglycemic activity in glucose loaded Sprague-Dawley rat assessed as reduction of glucose level per 100 mL of blood at 88 mg/kg, po measured at 2 hrs (reference value: 99 +/- 2 mg/100 mL); type: functional
[15] = test system: Mus musculus; test: Toxicity in Swiss-Webster mouse assessed as mortality at 75 mg/kg, sc; type: organism-based; set-up: dose 75 mg/kg, route subcutaneous; settings: in vivo
[16] = test system: Rattus norvegicus; test: Toxicity in Sprague-Dawley rat assessed as induction of physical dependence by measuring occurrence of abstinence signs administered as infusion at 0.3 log interval doses up to maximum tolerated dose 800 mg/kg/24 hrs, ip for 6 days prior to abrupt withdrawal; type: organism-based; set-up: route intraperitoneal; settings: in vivo
[17] = test system: Rattus norvegicus; test: Hypoglycemic activity in glucose/glycogen loaded Sprague-Dawley rat assessed as reduction of blood glucose level at 88 mg/kg, po measured at 1.5 hrs relative to control; type: functional; set-up: scale not given: the % may be the effect or the level left
[18] = test system: Rattus norvegicus; test: Toxicity in Sprague-Dawley rat assessed as catalepsy at 32 mg/kg, po administered 15 mins prior to testing; type: organism-based; set-up: dose 32 mg/kg, route oral; settings: in vivo, 0.25 h
[19] = test system: Rattus norvegicus; test: Hypoglycemic activity in fasted Sprague-Dawley rat assessed as reduction of blood glucose level at 50 mg/kg, po measured at 1 hr relative to control; type: functional; set-up: scale not given: the % may be the effect or the level left
[20] = test system: Rattus norvegicus; test: Hypoglycemic activity in glucose/glycogen loaded Sprague-Dawley rat assessed as reduction of blood glucose level at 88 mg/kg, po measured at 1 hr relative to control; type: functional; set-up: scale not given: the % may be the effect or the level left
[21] = test system: Rattus norvegicus; test: Toxicity in morphine-treated Sprague-Dawley rat assessed as catalepsy at 32 mg/kg, po administered 15 mins prior to testing; type: organism-based; set-up: dose 32 mg/kg, route oral; settings: in vivo, 0.25 h
[22] = test system: Canis familiaris; test: Toxicity in nalorphine-treated dog assessed as reduction of pulmonary ventilation rate at 100 mg/kg, im measured within 1 min; type: organism-based, Canis lupus familiaris; set-up: dose 100 mg/kg, route intramuscular; settings: in vivo
[23] = test system: Rattus norvegicus; test: Hypoglycemic activity in glucose loaded Sprague-Dawley rat assessed as reduction of blood glucose level at 88 mg/kg, po measured at 1.5 hrs relative to control; type: functional; set-up: scale not given: the % may be the effect or the level left
[24] = test system: Mus musculus; test: Toxicity in naloxone hydrochloride-treated Swiss-Webster mouse assessed as stimulation of straub tail at 300 mg/kg, po after 15 to 25 mins; type: organism-based; set-up: dose 300 mg/kg, route oral; settings: in vivo
[25] = test system: Rattus norvegicus; test: Hypoglycemic activity in glucose loaded Sprague-Dawley rat assessed as reduction of blood glucose level at 88 mg/kg, po measured at 1 hr relative to control; type: functional; set-up: scale not given: the % may be the effect or the level left
[26] = test system: Rattus norvegicus; test: Toxicity in Sprague-Dawley rat assessed as severe convulsion at 240 mg/kg, sc; type: organism-based; set-up: dose 240 mg/kg, route subcutaneous; settings: in vivo
[27] = test system: Rattus norvegicus; test: Hypoglycemic activity in fasted Sprague-Dawley rat assessed as reduction of blood glucose level at 50 mg/kg, po measured at 0.5 hrs relative to control; type: functional; set-up: scale not given: the % may be the effect or the level left
[28] = test system: Rattus norvegicus; test: Narcotic analgesic activity in sc dosed fed Sprague-Dawley rat measured at 30 mins by D'Amour-Smith tail-flick test; type: functional
[29] = test system: Rattus norvegicus; test: Narcotic analgesic activity in po dosed fasted Sprague-Dawley rat measured at 60 mins by D'Amour-Smith tail-flick test; type: functional; settings: Rattus norvegicus, Sprague-Dawley, Tail, po, 1 h; read-out: ED50
[30] = test system: Rattus norvegicus; test: Hypoglycemic activity in glucose/glycogen loaded Sprague-Dawley rat assessed as reduction of glucose level per 100 mL of blood at 88 mg/kg, po measured at 2 hrs (reference value: 102 +/- 7 mg/100 mL); type: functional
[31] = test system: Rattus norvegicus; test: Hypoglycemic activity in glucose/glycogen loaded Sprague-Dawley rat assessed as reduction of blood glucose level at 88 mg/kg, po measured at 0.5 hrs relative to control; type: functional; set-up: scale not given: the % may be the effect or the level left
[32] = test system: Rattus norvegicus; test: Toxicity in Sprague-Dawley rat assessed as induction of physical dependence by measuring occurrence of abstinence signs at 100 mg/kg/24 hrs, ip administered as 2 days of infusion prior to naloxone-precipitated withdrawal; type: organism-based; set-up: route intraperitoneal; settings: in vivo
[33] = test system: Mus musculus; test: Analgesic activity in sc dosed Swiss-Webster mouse assessed as reduction of acetylcholine-induced writhing; type: functional; settings: Mus musculus, Swiss-Webster, sc; read-out: ED50
[34] = test system: Rattus norvegicus; test: Hypoglycemic activity in glucose loaded Sprague-Dawley rat assessed as reduction of glucose level per 100 mL of blood at 50 mg/kg, po measured at 0.5 hrs (reference value: 176 +/- 8 mg/100 mL); type: functional
[35] = test system: Rattus norvegicus; test: Hypoglycemic activity in Sprague-Dawley rat assessed as reduction of blood glucose level at 88 mg/kg, po by glucagon-impaired glucose disposal test relative to control; type: functional; set-up: scale not given: the % may be the effect or the level left; settings: 88 mg/kg
[36] = test system: Rattus norvegicus; test: Hypoglycemic activity in fasted Sprague-Dawley rat assessed as reduction of blood glucose level at 88 mg/kg, po measured at 0.5 hrs relative to control; type: functional; set-up: scale not given: the % may be the effect or the level left
[37] = test system: Rattus norvegicus; test: Toxicity in po dosed Sprague-Dawley rat assessed as catalepsy administered 15 mins prior to testing; type: organism-based; settings: in vivo, 0.25 h
[38] = test system: Canis familiaris; test: Toxicity in dog assessed as respiratory depression at 150 mg/kg, im; type: organism-based, Canis lupus familiaris; set-up: dose 150 mg/kg, route intramuscular; settings: in vivo
[39] = test system: Rattus norvegicus; test: Hypoglycemic activity in glucose loaded Sprague-Dawley rat assessed as reduction of blood glucose level at 88 mg/kg, po measured at 0.5 hrs relative to control; type: functional; set-up: scale not given: the % may be the effect or the level left
[40] = test system: Rattus norvegicus; test: Hypoglycemic activity in glucose loaded Sprague-Dawley rat assessed as reduction of blood glucose level at 50 mg/kg, po measured at 1 hr relative to control; type: functional; set-up: scale not given: the % may be the effect or the level left
[41] = test system: Rattus norvegicus; test: Hypoglycemic activity in fasted Sprague-Dawley rat assessed as reduction of blood glucose level at 88 mg/kg, po measured at 2 hrs relative to control; type: functional; set-up: scale not given: the % may be the effect or the level left
[42] = test system: Rattus norvegicus; test: Toxicity in Sprague-Dawley rat assessed as catalepsy at 32 mg/kg, po administered 15 mins prior to testing in presence of naloxone hydrochloride; type: organism-based; set-up: dose 32 mg/kg, route oral; settings: in vivo, 0.25 h
[43] = test system: Rattus norvegicus; test: Narcotic analgesic activity in po dosed fasted Sprague-Dawley rat measured at 15 mins by D'Amour-Smith tail-flick test; type: functional; settings: 0.25 h
[44] = test system: Canis familiaris; test: Toxicity in dog assessed as stopped breathing at 100 mg/kg, im measured after 3 mins; type: organism-based, Canis lupus familiaris; set-up: dose 100 mg/kg, route intramuscular; settings: in vivo, 0.05 h
[45] = test system: Canis familiaris; test: Toxicity in dog assessed as reduction of pulmonary ventilation rate at 100 mg/kg, im measured within 20 mins relative to control; type: organism-based, Canis lupus familiaris; set-up: dose 100 mg/kg, route intramuscular; scale not given: the % may be the effect or the level left; settings: in vivo
[46] = test system: Rattus norvegicus; test: Hypoglycemic activity in glucose loaded Sprague-Dawley rat assessed as reduction of blood glucose level at 50 mg/kg, po measured at 1.5 hrs relative to control; type: functional; set-up: scale not given: the % may be the effect or the level left

## COC(=O)[C@H]1C[C@H]2CC[C@H]([C@H]1c1cccs1)N2C.Cl (racemic)
[1]
  Drug metabolism: metabolite_detected
[2]
  ED50: 35 mg/kg
[3]
  ED50: 138 mg/kg
[4]
  Activity: Non-toxic
[5]
  Activity: 27%
[6]
  Activity: 37%
[7]
  Activity: 38%
[8]
  Activity: 43%
[9]
  Activity: Non-toxic
[10]
  Activity: Non-toxic
[11]
  Activity: Non-toxic
[12]
  Activity: 50%
[13]
  Activity: 65%
[14]
  Activity: 100 mg
[15]
  Activity: Non-toxic
[16]
  Activity: Non-toxic
[17]
  Activity: 22%
[18]
  Activity: 65%
[19]
  Activity: 40%
[20]
  Activity: 38%
[21]
  Activity: 20%
[22]
  Activity: Non-toxic
[23]
  Activity: 32%
[24]
  Activity: Non-toxic
[25]
  Activity: 55%
[26]
  Activity: Toxic
[27]
  Activity: 34%
[28]
  ED50: 100 mg/kg
[29]
  ED50: 83 mg/kg
[30]
  Activity: 104 mg
[31]
  Activity: 62%
[32]
  Activity: Non-toxic
[33]
  ED50: 12 mg/kg
[34]
  Activity: 172 mg
[35]
  Activity: 63%
[36]
  Activity: 45%
[37]
  ED50: 18.6 mg/kg
[38]
  Activity: Non-toxic
[39]
  Activity: 55%
[40]
  Activity: 40%
[41]
  Activity: 24%
[42]
  Activity: Non-toxic
[43]
  ED50: 29 mg/kg
[44]
  Activity: Non-toxic
[45]
  Activity: 40%
[46]
  Activity: 53%
